Here are results for four compounds from patent US20100029778A1, “HAIR AND/OR SCALP TREATMENT COMPOSITIONS” (Unilever Home & Personal Care USA, Division of Conopco, Inc., priority 2001, published 2010).

Several values for one entry are separate records, joined by “and”; a condition that tells them apart may be missing. Identical values can stand only once.

For experiment [1], the system named is histamine-induced itch. Description: Histamine-induced itch, test material topically applied in ethanol:Vaseline Intensive Care Lotion 1:1. Format: in vivo, human. Conditions: for Itch score % of control: 50 mM in ethanol mixed 1:1 with VICL, control = ethanol:VICL vehicle alone of the same run; for Effect on histamine-induced itch (in words): topically applied in the presence of a lotion.

Experiment [2] has as its system histamine-induced itch. Description: Histamine-induced itch, test material applied under water-impermeable patch for 24 hours before histamine challenge. Conditions: applied by patch.
The test system of experiment [3] is histamine-induced itch. Put plainly: Histamine-induced itch, topically applied Aqueous Cream BP, histamine iontophoresis, VAS. To be noted: for Itch score (area under the curve): volar forearm skin, after 4 hours, VAS area under curve 0 to 5 minutes; for Itch score % of control: control = vehicle alone.
Setting [4] is: HU-210 0.05% (w/v) in Aqueous Cream BP.
The mark [5] stands for this setting: HU-210 0.5% (w/v) in Aqueous Cream BP.

Take `CCCCCCCCCCCCCCCCCC(=O)NCCO` [SEA]: in experiment [1], the “Itch score % of control” value was 231% and 260% and 190%; the “Effect on histamine-induced itch (in words)” value (from here on “Effect”) is recorded as “unable to demonstrate any anti-pruritic action or even appeared to exacerbate the itch response”.
As for `CCCCC/C=C\C/C=C\CCCCCCCC(=O)NCCO` [LAMEA, linoleoylethanolamine], in experiment [1], the “Itch score % of control” value is 169% and 108% and 100%; the “Effect” value was “unable to demonstrate any anti-pruritic action or even appeared to exacerbate the itch response”.
Consider `CCCCCCCCCCCCCCCC(=O)NCCO` [PEA, Palmitoylethanolamide], for which the “Effect” value in experiment [1] and in experiment [2] was “can inhibit histamine-induced itch” throughout.
As for `CCCCCCC(C)(C)c1cc(O)c2c(c1)OC(C)(C)[C@@H]1CC=C(CO)C[C@@H]21` [HU-210, (6aR)-trans-3-(1,1-Dimethylheptyl)-6a,7,10,10a-tetrahydro-1-hydroxy-6,6-dimethyl-6H-dibenzo[b,d]pyran-9-methanol], the “Itch score (area under the curve)” value in experiment [3] (setting [4]) was determined as 101; in experiment [3] (setting [5]), 119. Moreover, the “Itch score % of control” value in experiment [3] (setting [4]) is listed as 7.3%; in experiment [3] (setting [5]), 6.2%. Further, the “Effect” value in experiment [3] (topically applied in cream) was “capable of reducing histamine-induced itch”.
